Test results from patent publication US9969970B2, “DNA-cell conjugates” (The Regents of the University of California, priority 2009, dated 2018).
{Phos} = phosphine group for Staudinger ligation to cell-surface azides

Tests used:
[1] = tested on: Jurkat cells; test: Bulk cell acidification control with rotenone; type: cell-based; settings: 1 μM rotenone, low-buffered media, ~10^6 cells/mL, 37° C.
Protocol: (§1) Incubation with rotenone would be expected to interfere with the mitochondrial electron transport chain, causing cells to shift to lactic acid fermentation to complete the glycolytic cycle. The resulting excretion of lactic acid should then increase the rate of acidification in the cellular environment. In the experiment, captured cells were first incubated under normal conditions to establish a baseline rate of acidification (˜8.8 milli-pH/min) under aerobic metabolism.

[2] = tested on: Jurkat cells; test: Single cell acidification on the bifunctional microelectrode array, rotenone stimulation; type: cell-based
Protocol: Metabolic monitoring was accomplished as follows: Cells were suspended at a concentration of 10^6/ml, and the suspension was flowed into the microfluidic device. Cell suspensions were flowed into the channel using 1 mL syringes with Teflon tubing. Where Jurkat and primary T cells were monitored simultaneously they were labeled with CellTracker Green and Red dyes, respectively, as previously described and mixed in an equal ratio. Following a 5 min incubation to allow DNA-based cell capture, the unbound cells were rinsed away (5 ul/min for 3 min) with the low-buffered media. After rinsing, the pH response was monitored electrochemically for 10 min. After this recording, cells were released from the electrodes by heating the device to 55° C. and applying a strong rinse (200 uL/min) with the low-buffered media. Once rinsed and allowed to return to 37° C., the device could be reloaded with cells. This allowed for multiple measurements to be taken with a single cell preparation.
Voltage measurements were recorded between the iridium oxide electrode and a distant FLEXREF Ag/AgCl reference electrode from World Precision Instruments. An identical iridium oxide electrode outside the cell area was used to compensate for any sensor drift. The sensor electrodes were connected to a National Instruments PCI-6031E data acquisition card with 16 bit analog to digital conversion. The digitized signals were monitored using a custom Labview VI, sampling in multiplex at 3 hz. Voltage signals were processed with a 1% Loess filter using Peak Fit software to reduce noise.
as §1

[3] = tested on: Jurkat cells; test: Quantification of DNA attached to the cell surface; type: cell-based; settings: Ac4ManNAz-fed cells, Staudinger ligation
[4] = tested on: Jurkat cells; test: Cell capture, morphology and annexin V/PI viability of cells immobilized on biomolecule-coated slides; type: cell-based
Protocol: (§2) FIG. 17. Comparison of biomolecule-based adhesion methods. a) Bulk cell growth rates were first determined in the presence of the adhesion molecules. A suspension of Jurkat cells was combined with ConA or anti-CD3 IgG, and a solution of DNA-coated cells was combined with the complementary DNA strands. At various time points the total number of cells was counted. The control sample was grown in the absence of any adhesion molecules. b) To evaluate cell capture efficiency, solutions of 20 μM FITC-labeled ssDNA, 20 μM FITC-labeled ConA, and 6 μM FITC-labeled anti-CD3 IgG were applied to aldehyde-coated glass slides, and the biomolecules were attached by reductive amination. Solutions containing 1×10^7 Jurkat cell mL^−1 were then introduced onto the resulting slides. […] The cells were evaluated within 1 h by fluorescence microscopy. * ConA and antibody immobilized cells that were partially stained by annexin were counted as cells undergoing apoptosis. […]
The extent of apoptosis of surface bound cells was determined by annexin V/propidium iodide staining (BD Biosciences). […] The cells were imaged by fluorescence microscopy and the number of non-viable cells counted after one hour. […]

[5] = tested on: Jurkat cells; test: AFM measurement of de-adhesion force, cell-cantilever; settings: cantilever attachment method
Protocol: FIG. 18. AFM measurement of de-adhesion force. A) Six sample traces for a single cell are shown in shades of gray, with the average trace shown in black. At zero distance, the cell is in full contact with the cantilever, which is applying a positive force. As distance increases, the cantilever is pulled away from the glass slide surface, causgin the cell-cantilever linkage to rupture and result in the zero-force, no-contact region. The force of d-adhesion was calculated as the difference between the curve minimum and the horizontal no=contact region. B) Adhesion forces were measured under different retraction rates (15.7 and 8.2 μm/s) and contact forces (400 and 200 pN) for the DNA, ConA, and antibody systems. Data were obtained by measuring size de-adhesion events on more than four different cells. Error bards represent one standard deviation.
Our assay to determine the strength of cantilever attachment was designed such that cell-cantilever adhesions were fewer in number, and therefore weaker overall, than DNA-based adhesions between a cell and the complementarily functionalized glass slide. […] The force of de-adhesion was measured for each attachment method using two different retraction rates and two different contact forces (FIG. 18a). The measured force of de-adhesion increased with contact force and retraction rate across all attachment methods, as predicted by the Bell model. […]

[6] = 20 bp DNA duplex; ConA-mannose; antibody-antigen; cited from earlier work
[7] = tested on: Jurkat cells; test: Bulk cell growth and morphology in the presence of adhesion molecules; type: cell-based; settings: adhesion molecule in suspension; DNA-coated cells with complementary sequence
Protocol: as §2, with “slides. The samples were incubated for 10 min at room temperature and then washed with two portions of phosphate-buffered saline (PBS) before evaluation. c) To evaluate cell viability, cells were immobilized on DNA, ConA, and anti-CD3 IgG coated aldehyde slides.” for “slides.”
The effects of the adhesion molecules on the viability of the cells were assessed using two different methods. […]

## C=C(C)[C@H]1Cc2c(ccc3c2O[C@@H]2COc4cc(OC)c(OC)cc4[C@@H]2C3=O)O1 [rotenone]
[1]
  acidification over 60 min compared to identical untreated cells: more than twice
[2]; 10 μM rotenone versus baseline
  increase in the acidification rate: three-fold
[2]; after addition of 10 μM rotenone
  time to increase in acidification rate: ≤ 1 min
[2]; single Jurkat cells after 10 μM rotenone added to channel, baseline ~8.8 milli-pH/min
  acidification rate: ~27.7 milli-pH/min

## Phosphine-modified ssDNA: phosphine-modified ssDNA (5′-phos-GTAACGATCCAGCTGTCACT-3′) ligated to cell-surface azides by Staudinger ligation (DNA GTAACGATCCAGCTGTCACT; DNA, 5' {Phos}, backbone not given here)
[3]
  ssDNA molecules per cell: ≈ 270,000

## concanavalin A [ConA]
[4]; 24 and 48 h after immobilization
  apoptotic and necrotic cells, annexin V and PI staining: significantly higher numbers of apoptotic cells
[4]; after 48 h on coated slides
  morphology of immobilized cells: significant changes
[5]
  zero-force attachment events in de-adhesion measurements: 12%
[6]
  force of one individual linkage: 47 pN
[7]
  cell growth over a three-day period: aggregated and were no longer alive after 12 h
